Experiment: Adverse events (CTCAE 4.0) under apatinib plus gefitinib
Type: in vivo, human
Settings: Apatinib 250 mg Cohort (n = 7), with gefitinib 250 mg; treatment‐related AE, patients (%)

N#CC1(c2ccc(NC(=O)c3cccnc3NCc3ccncc3)cc2)CCCC1 [Apatinib]
3 (42.9%): Elevated ALT, ALL | Epistaxis, ALL | Epistaxis, Grade 1–2 | Oulorrhagia, ALL | Oulorrhagia, Grade 1–2 | Proteinuria, ALL
1 (14.3%): Dysgeusia, ALL | Dysgeusia, Grade 1–2 | Eczema, ALL | Eczema, Grade 1–2 | Elevated ALT, Grade 3–4 | Elevated AST, Grade 1–2 | Elevated AST, Grade 3–4 | Gastrointestinal bleeding, ALL | Gastrointestinal bleeding, Grade 1–2 | Haematuria, ALL | Haematuria, Grade 1–2 | Headache, ALL | Headache, Grade 1–2 | Hematochezia, ALL | Hematochezia, Grade 1–2 | Hypertension, Grade 3–4 | Increased bilirubin, ALL | Increased bilirubin, Grade 1–2 | Paronychia, ALL | Paronychia, Grade 1–2 | Periodontitis, ALL | Periodontitis, Grade 1–2 | Pharyngalgia, ALL | Pharyngalgia, Grade 1–2 | Pneumonia (non‐interstitial), ALL | Pneumonia (non‐interstitial), Grade 1–2 | Proteinuria, Grade 3–4
4 (57.1%): Cough, ALL | Cough, Grade 1–2 | Hypertension, Grade 1–2
0: Abdominal distention, Grade 3–4 | Blurred vision, ALL | Blurred vision, Grade 1–2 | Blurred vision, Grade 3–4 | Cough, Grade 3–4 | Diarrhea, Grade 3–4 | Dizziness, ALL | Dizziness, Grade 1–2 | Dizziness, Grade 3–4 | Dry skin, Grade 3–4 | Dysgeusia, Grade 3–4 | Eczema, Grade 3–4 | Epistaxis, Grade 3–4 | Fatigue, Grade 3–4 | Gastrointestinal bleeding, Grade 3–4 | HFSR, Grade 3–4 | Haematuria, Grade 3–4 | Headache, Grade 3–4 | Hematochezia, Grade 3–4 | Increased bilirubin, Grade 3–4 | Increased creatinine, ALL | Increased creatinine, Grade 1–2 | Increased creatinine, Grade 3–4 | Leukopenia, ALL | Leukopenia, Grade 1–2 | Leukopenia, Grade 3–4 | Nausea, ALL | Nausea, Grade 1–2 | Nausea, Grade 3–4 | Neutropenia, ALL | Neutropenia, Grade 1–2 | Neutropenia, Grade 3–4 | Oulorrhagia, Grade 3–4 | Paronychia, Grade 3–4 | Periodontitis, Grade 3–4 | Pharyngalgia, Grade 3–4 | Pneumonia (non‐interstitial), Grade 3–4 | Pruritus, ALL | Pruritus, Grade 1–2 | Pruritus, Grade 3–4 | Rash, Grade 3–4 | Stomatitis, Grade 3–4 | Thrombocytopenia, ALL | Thrombocytopenia, Grade 1–2 | Thrombocytopenia, Grade 3–4 | Trachyphonia, Grade 3–4 | Vomiting, ALL | Vomiting, Grade 1–2 | Vomiting, Grade 3–4
2 (28.6%): Abdominal distention, ALL | Abdominal distention, Grade 1–2 | Dry skin, ALL | Dry skin, Grade 1–2 | Elevated ALT, Grade 1–2 | Elevated AST, ALL | Fatigue, ALL | Fatigue, Grade 1–2 | HFSR, ALL | HFSR, Grade 1–2 | Proteinuria, Grade 1–2 | Stomatitis, ALL | Stomatitis, Grade 1–2 | Trachyphonia, ALL | Trachyphonia, Grade 1–2
5 (71.4%): Diarrhea, ALL | Diarrhea, Grade 1–2 | Hypertension, ALL | Rash, ALL | Rash, Grade 1–2

Source: paper PMC7403827 (Clinical and Translational Medicine, 2020)
